# Legend:
# ScLPMO9A = target: T1, ScLPMO9A (Schizophyllum commune, UniProt D8Q364); test: NMR titration, […]-HSQC chemical shift perturbation; assay type: binding; details: copper-free apo enzyme, 15N-labelled, 25 mM Tris-HCl pH 7.0, 25 mM NaCl, 2.3% glycerol, 25 °C
# T1 construct: gene LPMO9A; residues 20-247, pelB signal peptide for periplasmic export, E. coli T7 Express, no tag told; single domain without CBM; 15N-labelled copper-free (apo) protein for NMR
# T1 sequence (D8Q364 20-247): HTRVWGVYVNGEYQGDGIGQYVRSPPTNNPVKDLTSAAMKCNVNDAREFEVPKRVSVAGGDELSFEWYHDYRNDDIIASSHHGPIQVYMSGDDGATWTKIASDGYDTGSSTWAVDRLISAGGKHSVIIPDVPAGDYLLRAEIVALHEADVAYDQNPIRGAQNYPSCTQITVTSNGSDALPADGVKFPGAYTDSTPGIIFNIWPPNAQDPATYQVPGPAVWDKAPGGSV
# NcLPMO9C = target: T2, NcLPMO9C (Neurospora crassa, UniProt Q7SHI8); test: HPAEC-PAD product analysis; assay type: biochemical; details: 1 mM substrate, 1 µM LPMO, 1 mM ascorbic acid, 50 mM BisTris-HCl pH 6.5, 40 °C, 16 h
# T2 construct: gene gh61-3; CBM1-containing enzyme, produced in Pichia pastoris as described earlier, copper-saturated
# T2 sequence (Q7SHI8 17-359): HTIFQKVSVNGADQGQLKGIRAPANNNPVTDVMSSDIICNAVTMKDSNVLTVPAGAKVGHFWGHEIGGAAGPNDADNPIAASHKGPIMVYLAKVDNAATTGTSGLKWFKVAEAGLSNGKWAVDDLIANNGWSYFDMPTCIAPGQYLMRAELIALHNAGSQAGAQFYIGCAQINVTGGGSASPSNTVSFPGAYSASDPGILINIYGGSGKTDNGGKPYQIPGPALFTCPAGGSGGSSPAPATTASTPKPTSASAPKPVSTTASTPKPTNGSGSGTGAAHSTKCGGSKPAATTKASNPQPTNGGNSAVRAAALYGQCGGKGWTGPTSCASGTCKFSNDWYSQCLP
Compound,Kd (ScLPMO9A; range from four 1H-15N signals) [µM],HPAEC-PAD product analysis (NcLPMO9C),Kd (ScLPMO9A; range from two 1H-15N signals) [µM]
OC[C@H]1O[C@@H](O[C@H]2[C@H](O)[C@@H](O)[C@H](O[C@H]3[C@H](O)[C@@H](O)[C@H](O[C@H]4[C@H](O)[C@@H](O)[C@H](O[C@H]5[C@H](O)[C@@H](O)[C@H](O[C@H]6[C@H](O)[C@@H](O)C(O)O[C@@H]6CO)O[C@@H]5CO)O[C@@H]4CO)O[C@@H]3CO)O[C@@H]2CO)[C@H](O)[C@@H](O)[C@@H]1O (stereo partly shown) [cellohexaose],10 to 40,"With cellohexaose (Glc6), NcLPMO9C generated primarily Glc4gemGlc and cellotetraose",–
OC[C@H]1O[C@@H](O[C@H]2[C@H](O)[C@@H](O)[C@H](O[C@H]3[C@H](O)[C@@H](O)[C@H](O[C@H]4[C@H](O)[C@@H](O)[C@H](O[C@H]5[C@H](O)[C@@H](O)C(O)O[C@@H]5CO)O[C@@H]4CO)O[C@@H]3CO)O[C@@H]2CO)[C@H](O)[C@@H](O)[C@@H]1O (stereo partly shown) [cellopentaose],–,–,30 to 50
OC[C@H]1O[C@@H](O[C@H]2[C@H](O)[C@@H](O)[C@H](O[C@H]3[C@H](O)[C@@H](O)[C@H](O[C@H]4[C@H](O)[C@@H](O)C(O)O[C@@H]4CO)O[C@@H]3CO)O[C@@H]2CO)[C@H](O)[C@@H](O)[C@@H]1O (stereo partly shown) [cellotetraose],–,NcLPMO9C showed limited activity on cellotetraose (Glc4),–

# Reference: paper PMC10575960, “Functional characterization of a lytic polysaccharide monooxygenase from Schizophyllum commune that degrades non-crystalline substrates” (Scientific Reports, 2023)
